Data reported in patent publication US20080293721A1, “ARYLTHIOACETAMIDE CARBOXYLATE DERIVATIVES AS FKBP INHIBITORS FOR THE TREATMENT OF NEUROLOGICAL DISEASES” (Burnham Institute for Medical Research, priority 2007, published 2008).

What was measured:
[1] = tested on: primary rat cortical neurons; assay: neurite outgrow with primary rat cortical neurons (FIGS. 4, 5; Sholl analysis); assay type: cell-based; conditions: FIG. 4
Text: FIGS. 4 and 5 show the effect of FKBP12 ligands on neurite outgrow with primary rat cortical neurons.

FKBP12 = FKBP12 (Homo sapiens, UniProt P62942); assay: secondary assays with isothermal titration calorimetry and 2D NMR (FIGS. 2, 3); assay type: binding
FKBP12, sequence (P62942 whole entry, species assumed): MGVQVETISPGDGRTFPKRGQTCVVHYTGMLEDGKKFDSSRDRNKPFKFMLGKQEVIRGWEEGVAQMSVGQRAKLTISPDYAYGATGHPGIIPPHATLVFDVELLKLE
Text: The ligand concentration chart refers to the compound having the formula VIII (i.e., p-toluoylthioacetylmorpholine) used as the ligand.

Row | Kd (FKBP12) [µM] | Compound | effect on neurite outgrow [1]
1 | – | CC(C)c1ccc(SCC(=O)N2CCOCC2C(=O)OCCCc2cccnc2)cc1 (centres unmarked) [Compound VII, 3-(pyridine-3-yl)propyl 4-(2-(4-isopropylphenylthio)acetyl)morpholine-3-carboxylate] | particularly substantial
2 | 4 | Cc1ccc(SCC(=O)N2CCOCC2)cc1 [VIII] | –
